Results as given in US20220370515A1, “MEDICAL COMPOSITIONS AND THEIR USE IN TREATING PANCREATIC CANCER” (BIOMILLENIA SAS, priority 2019, published 2022).
“Also recorded” adds a separate entry of the source.

Legend:
Type in all cases: cell-based
Malassezia restricta [1] = assay: Modified disc diffusion assay with living culture (Example 2); details: M. restricta lawn; discs soaked with 15 ul exponentially growing Acetobacter culture or ketoconazole 1 mg/mL in DMSO; 5 days incubation
Experimental: (§1) FIG. 1|Inhibition assays of M. restricta and M. globose by growth of Acetobacter fabarum. Discs were soaked with ketoconazole (1 mg/ml in DMSO) or exponentially growing Acetobacter fabarum culture and placed on agar plates containing a soft layer inoculated with a single culture of the different Malassezia species to be tested. In the upper panel, inhibition of Malassezia globosa is shown; in the bottom panel, Malassezia restricta is shown.
(§2) In order to identify strains whose growth inhibits Malassezia, inhibition assays were performed using a modified disc diffusion method. This method is similar to the classical disk diffusion method that consists in depositing discs imbibed with potential inhibitory substances on Petri plates containing a strain of interest, except that the disks were imbibed with a living culture of an Acetobacter strain. After optimal growth of the strain of interest, growth inhibition can be observed around discs on which the growth of inhibitory bacteria has occurred. Ketoconazole (at 1 mg/mL in DMSO) was used as a positive control for Malassezia growth inhibition. The effect of growth of Acetobacter was tested on Malassezia restricta and Malassezia globosa. All Malassezia strains were streaked from −80° C. stock on Modified Leeming and Notman (MLN) agar plates and incubated 10 days at 30° C. […]

Malassezia globosa [2] = assay: as above; details: M. globosa lawn; discs soaked with 15 ul exponentially growing Acetobacter culture or ketoconazole 1 mg/mL in DMSO; 5 days incubation
Experimental: as §1, §2

Malassezia restricta [3] = assay: Disc diffusion inhibition assay (Example 1); details: M. restricta lawn; 6 mm discs soaked with 15 ul supernatant or ketoconazole 1 mg/ml in DMSO; 5 days incubation
Experimental: (§3) FIG. 1|Inhibition assays of the fungicide ketoconazole as positive control for inhibition and Kazachstania unispora supernatant on M. sympodialis, M. furfur, M. restricta and M. globosa. Inhibition assays were performed using the disc diffusion method. Discs were soaked with ketoconazole (1 mg/ml) or K. unispora supernatant and placed on agar plates containing a soft layer inoculated with a single culture of the different Malassezia species to be tested.
(§4) In order to identify strains inhibiting Malassezia growth, inhibition assays were performed using the disc diffusion method. This method consists in disposing discs imbibed with potential inhibitory substances on Petri plates containing a strain of interest. After optimal growth of the strain of interest, growth inhibition can be observed around discs soaked with substances having an inhibitory effect. Potential inhibitory substances tested in this experiment are supernatants obtained after individually culturing a collection of fungal and bacterial strains. After an incubation of 10 days in their optimal broth, each culture was centrifuged and the supernatant was filtered and further stored at −20° C. Ketoconazole, a fungicide, was used as a positive control for Malassezia growth inhibition. It was diluted in dimethyl sulfoxide at 1 mg/ml. The collection of supernantants was tested on the following species from the genus Malassezia: Malassezia restricta, Malassezia globosa, Malassezia furfur and Malassezia sympodialis. All strains were streaked from −80° C. stock on Modified Leeming and Notman (MLN) agar plates and incubated 10 days at 30° C. A 5 ml liquid culture of each species was made in MLN broth and incubated at 30° C. for 2 days for M. furfur and M. sympodialis and 5 days for M. restricta and M. globosa. To allow a lawn growth of the different Malassezia strains tested, Petri plates were prepared as follows: a bottom layer of 50 ml Modified Sabouraud Dextrose (MSD) agar was poured in Petri plates. The soft agar, constituting the top layer, was a mix of 12.5 ml MSD agar, 10.5 ml MLN broth and 2 ml of liquid culture. Plates were allowed to dry for one hour, then, 6 mm-diameter Whatman™ discs were soaked with 15 ul of each thawed supernatants and ketoconazole and placed on the soft agar plate containing the solidified Malassezia monoculture layer. After an incubation of 5 days, inhibition area could be easily observed around discs. […] The strain from which the inhibitory supernatant has been produced was further sequenced using the Sanger technology. The internal transcribed spacer (ITS) of this strain was taxonomically assigned to the yeast Kazachstania unispora (BLASTn, 99% identity, 99% query cover, e-value 0.00).

Malassezia globosa [4] = assay: Disc diffusion inhibition assay (Example 1); details: M. globosa lawn; 6 mm discs soaked with 15 ul supernatant or ketoconazole 1 mg/ml in DMSO; 5 days incubation
Experimental: as §3, §4

Malassezia furfur = assay: Disc diffusion inhibition assay (Example 1); details: M. furfur lawn; 6 mm discs soaked with 15 ul supernatant or ketoconazole 1 mg/ml in DMSO; 5 days incubation
Experimental: as §3, §4

Malassezia sympodialis = assay: Disc diffusion inhibition assay (Example 1); details: M. sympodialis lawn; 6 mm discs soaked with 15 ul supernatant or ketoconazole 1 mg/ml in DMSO; 5 days incubation
Experimental: as §3, §4

With `CC(=O)N1CCN(c2ccc(OCC3COC(Cn4ccnc4)(c4ccc(Cl)cc4Cl)O3)cc2)CC1` (stereo not drawn) [ketoconazole] the “growth inhibition (inhibition halo around disc)” value (shortened to “growth inhibition”) (Malassezia restricta [1]) was “inhibits growth of both Malassezia species tested; also recorded: inhibited both Malassezia restricta and Malassezia globose”, the “growth inhibition” value (Malassezia globosa [2]) was “inhibits growth of both Malassezia species tested; also recorded: inhibited both Malassezia restricta and Malassezia globose” and the “growth inhibition” value (Malassezia restricta [3]) was “inhibits growth of all 4 Malassezia species tested; also recorded: inhibited all 4 Malassezia species tested”. For the same compound, the “growth inhibition” value (Malassezia globosa [4]) was “inhibits growth of all 4 Malassezia species tested; also recorded: inhibited all 4 Malassezia species tested”, the “growth inhibition” value (Malassezia furfur) was “inhibits growth of all 4 Malassezia species tested; also recorded: inhibited all 4 Malassezia species tested” and the “growth inhibition” value (Malassezia sympodialis) was “inhibits growth of all 4 Malassezia species tested; also recorded: inhibited all 4 Malassezia species tested”.
